Laboratory results taken from patent publication US11207310B2 (PRILENIA NEUROTHERAPEUTICS LTD., priority 2016, dated 2021).
Like-named read-outs stand apart in the source and are kept apart here.

Assays:
patients with HD [1] = system: patients with HD
Description: The PBA-s is a brief semi-structured interview covering the most common behavioral and psychiatric manifestations of HD. […] Severity and frequency scores are multiplied to produce an overall ‘PBA score’ for each symptom.
The PBA-s is a brief semi-structured interview covering the most common behavioral and psychiatric manifestations of HD.
The total PBA score is calculated by the sum of all PBA-s scores across symptoms/domains.

patients with HD [2] = settings: for TFC Domestic Chores, Δ to placebo: 52 weeks, Early Stage HD (TFC≥7)
Source text: The TFC scale of the UHDRS is a standardized scale used to assess 5 functional domains associated with disability shown below (occupation, finances, domestic chores (e.g. laundry, washing dishes), activities of daily living, and care level). The TFC score has a range of 0-13 and is a well-established endpoint for trials aiming disease progression. […] The TFC score is accepted by regulators and often considered the most widely accepted tool for disease procession in HD patients. Additionally, TFC is considered the gold standard for measuring HD rate of functional decline. […] The floor and ceiling effects make TFC scores more sensitive to change in early stage HD than in late stage HD.
Domestic Chores: 0=unable, 1=impaired, 2=normal.

patients with HD [3] = system: patients with HD; remark: listed apart in the source
Source text: The mPPT quantifies the patient's performance in physical tasks (Brown 2000). It is a standardized 9-item test (standing static balance, chair rise, lift a book and put it on a shelf, put on and remove a jacket, pick up a penny from floor, turn 360 degrees, 50 feet walk, climb one flight of stairs, climb stairs test (flights up and down)), that measures the patient's performance on functional tasks. Both the speed and accuracy at which the patients complete the items are taken into account during scoring. The maximum score of the test is 36, with higher scores indicating better performance. The Multiple Sclerosis Walking Scale (MSWS-12) was adapted to become a generic measure of walking and mobility and renamed the Walk-12.
The secondary efficacy variable and endpoint, the Modified Physical Performance Test (mPPT), quantifies the patient's performance in physical tasks (Brown 2000). It is a standardized 9-item test that measures the patient's performance on functional tasks. Assistive devices are permitted for the tasks that require a standing position (items 6 to 9). Both the speed and accuracy at which the patients complete the items were taken into account during scoring. The maximum score of the test is 36, with higher scores indicating better performance.

[4] = 45 mg bid, Week 26, Stage 1 BL TFC 11-13
[5] = 67.5 mg bid, Week 26, Stage 1 BL TFC 11-13
[6] = 90 mg bid, Week 26, Stage 1 BL TFC 11-13
[7] = 112.5 mg bid, Week 26, Stage 1 BL TFC 11-13
[8] = 45 mg bid, HD1 and HD2 patients, 52 weeks
[9] = 45 mg bid, full analysis set, 26 weeks
[10] = 45 mg bid, full analysis set, 52 weeks
[11] = 45 mg bid, late stage HD patients with BL TFC<7, 52 weeks
[12] = 67.5 mg bid, HD1 and HD2 patients, 52 weeks
[13] = 67.5 mg bid, full analysis set, 26 weeks

CCCN1CCC(c2cccc(S(C)(=O)=O)c2)CC1 [pridopidine, 4-[3-(methylsulfonyl)phenyl]-1-propyl-piperidine]
Change from baseline in PBA Total Score, Δ to placebo (patients with HD [1]; 45 mg bid, Week 26, ALL, full analysis set): −0.46
Change from baseline in PBA Total Score, Δ to placebo (patients with HD [1]; [4]): −4.83
Change from baseline in PBA Total Score, Δ to placebo (patients with HD [1]; 45 mg bid, Week 52, BL TFC≥7): −2.74
Change from baseline in PBA Total Score, Δ to placebo (patients with HD [1]; 67.5 mg bid (table has no head; column order as in the other tables), Week 52, Full analysis set): −0.63
Change from baseline in PBA Total Score, Δ to placebo (patients with HD [1]; 67.5 mg bid, Week 26, ALL, full analysis set): −1.83
Change from baseline in PBA Total Score, Δ to placebo (patients with HD [1]; [5]): −9.22
Change from baseline in PBA Total Score, Δ to placebo (patients with HD [1]; 67.5 mg bid, Week 52, BL TFC≥7): 0.61
Change from baseline in PBA Total Score, Δ to placebo (patients with HD [1]; 90 mg bid (table has no head; column order as in the other tables), Week 52, Full analysis set): −0.38
Change from baseline in PBA Total Score, Δ to placebo (patients with HD [1]; 90 mg bid, Week 26, ALL, full analysis set): 0.51
Change from baseline in PBA Total Score, Δ to placebo (patients with HD [1]; [6]): −4.74
Change from baseline in PBA Total Score, Δ to placebo (patients with HD [1]; 90 mg bid, Week 52, BL TFC≥7): 0.9
Change from baseline in PBA Total Score, Δ to placebo (patients with HD [1]; 112.5 mg bid (table has no head; column order as in the other tables), Week 52, Full analysis set): 0.3
Change from baseline in PBA Total Score, Δ to placebo (patients with HD [1]; 112.5 mg bid, Week 26, ALL, full analysis set): −1.85
Change from baseline in PBA Total Score, Δ to placebo (patients with HD [1]; [7]): −7.08
Change from baseline in PBA Total Score, Δ to placebo (patients with HD [1]; 112.5 mg bid, Week 52, BL TFC≥7): 1.4
TFC Domestic Chores, Δ to placebo (patients with HD [2]; 45 mg bid): 0.24
Change from baseline in UHDRS TFC Domestic Chores, Δ to Placebo (patients with HD [2]; 45 mg bid, Week 26, ALL): −0.01
Change from baseline in UHDRS TFC Domestic Chores, Δ to Placebo (patients with HD [2]; [4]): 0.34
Change from baseline in UHDRS TFC Domestic Chores, Δ to Placebo (patients with HD [2]; 45 mg bid, Week 52, ALL): 0.23
Change from baseline in UHDRS TFC Domestic Chores, Δ to Placebo (patients with HD [2]; 45 mg bid, Week 52, Stage 1 BL TFC 11-13): 0.49
TFC Domestic Chores, Δ to placebo (patients with HD [2]; 67.5 mg bid): 0.09
Change from baseline in UHDRS TFC Domestic Chores, Δ to Placebo (patients with HD [2]; 67.5 mg bid, Week 26, ALL): 0.02
Change from baseline in UHDRS TFC Domestic Chores, Δ to Placebo (patients with HD [2]; [5]): 0.21
Change from baseline in UHDRS TFC Domestic Chores, Δ to Placebo (patients with HD [2]; 67.5 mg bid, Week 52, ALL): −0.03
Change from baseline in UHDRS TFC Domestic Chores, Δ to Placebo (patients with HD [2]; 67.5 mg bid, Week 52, Stage 1 BL TFC 11-13): 0.05
TFC Domestic Chores, Δ to placebo (patients with HD [2]; 90 mg bid): 0.16
Change from baseline in UHDRS TFC Domestic Chores, Δ to Placebo (patients with HD [2]; 90 mg bid, Week 26, ALL): 0
Change from baseline in UHDRS TFC Domestic Chores, Δ to Placebo (patients with HD [2]; [6]): 0.34
Change from baseline in UHDRS TFC Domestic Chores, Δ to Placebo (patients with HD [2]; 90 mg bid, Week 52, ALL): 0.05
Change from baseline in UHDRS TFC Domestic Chores, Δ to Placebo (patients with HD [2]; 90 mg bid, Week 52, Stage 1 BL TFC 11-13): 0.1
TFC Domestic Chores, Δ to placebo (patients with HD [2]; 112.5 mg bid): 0.04
Change from baseline in UHDRS TFC Domestic Chores, Δ to Placebo (patients with HD [2]; 112.5 mg bid, Week 26, ALL): 0.06
Change from baseline in UHDRS TFC Domestic Chores, Δ to Placebo (patients with HD [2]; [7]): 0.47
Change from baseline in UHDRS TFC Domestic Chores, Δ to Placebo (patients with HD [2]; 112.5 mg bid, Week 52, ALL): 0.04
Change from baseline in UHDRS TFC Domestic Chores, Δ to Placebo (patients with HD [2]; 112.5 mg bid, Week 52, Stage 1 BL TFC 11-13): 0.23
Change from baseline in mPPT Climb One Flight of Stairs scores, Δ to placebo (patients with HD [3]; [8]): 0.27
Change from baseline in mPPT Climb Stairs (Flights Up and Down) scores, Δ to placebo (patients with HD [3]; [8]): −0.01
Change from baseline in mPPT Climb One Flight of Stairs scores, Δ to placebo (patients with HD [3]; 45 mg bid, HD1 patients, 52 weeks): −0.02
Change from baseline in mPPT Climb One Flight of Stairs scores, Δ to placebo (patients with HD [3]; 45 mg bid, HD2 patients, 52 weeks): 0.35
Change from baseline in mPPT Climb Stairs (Flights Up and Down) scores, Δ to placebo (patients with HD [3]; [9]): −0.03
Δ to placebo: mPPT 50 Feet Walk scores, change from baseline (patients with HD [3]; [9]): −0.02
Δ to placebo: mPPT Chair Rise scores (patients with HD [3]; [9]): 0.05
Δ to placebo: mPPT Climb One Flight of Stairs scores, change from baseline (patients with HD [3]; [9]): 0.08
Δ to placebo: mPPT Lift a Book and Put it on the Shelf scores, change from baseline (patients with HD [3]; [9]): 0.14
Δ to placebo: mPPT Pick up a Penny from the Floor scores, change from baseline (patients with HD [3]; [9]): −0.13
Δ to placebo: mPPT Put on and Remove a Jacket scores, change from baseline (patients with HD [3]; [9]): −0.22
Δ to placebo: mPPT Turn 360 Degrees scores, change from baseline (patients with HD [3]; [9]): 0.12
Δ to placebo: mPPT standing static balance scores (patients with HD [3]; [9]): 0.07
Change from baseline in mPPT Climb Stairs (Flights Up and Down) scores, Δ to placebo (patients with HD [3]; [10]): 0.17
Δ to placebo: mPPT 50 Feet Walk scores, change from baseline (patients with HD [3]; [10]): −0.03
Δ to placebo: mPPT Chair Rise scores (patients with HD [3]; [10]): −0.05
Δ to placebo: mPPT Climb One Flight of Stairs scores, change from baseline (patients with HD [3]; [10]): 0.26
Δ to placebo: mPPT Lift a Book and Put it on the Shelf scores, change from baseline (patients with HD [3]; [10]): 0.25
Δ to placebo: mPPT Pick up a Penny from the Floor scores, change from baseline (patients with HD [3]; [10]): 0.04
Δ to placebo: mPPT Put on and Remove a Jacket scores, change from baseline (patients with HD [3]; [10]): 0.2
Δ to placebo: mPPT Turn 360 Degrees scores, change from baseline (patients with HD [3]; [10]): −0.12
Δ to placebo: mPPT standing static balance scores (patients with HD [3]; [10]): −0.15
Change from baseline in mPPT Climb One Flight of Stairs scores, Δ to placebo (patients with HD [3]; 45 mg bid, late stage HD patients with BL TFC 0-6, 52 weeks): 0.19
Change from baseline in mPPT Climb Stairs (Flights Up and Down) scores, Δ to placebo (patients with HD [3]; [11]): 0.72
Δ to placebo: mPPT Climb One Flight of Stairs scores, change from baseline (patients with HD [3]; [11]): 0.19
Change from baseline in mPPT Climb One Flight of Stairs scores, Δ to placebo (patients with HD [3]; [12]): 0.3
Change from baseline in mPPT Climb Stairs (Flights Up and Down) scores, Δ to placebo (patients with HD [3]; [12]): 0.01
Change from baseline in mPPT Climb One Flight of Stairs scores, Δ to placebo (patients with HD [3]; 67.5 mg bid, HD1 patients, 52 weeks): 0.01
Change from baseline in mPPT Climb One Flight of Stairs scores, Δ to placebo (patients with HD [3]; 67.5 mg bid, HD2 patients, 52 weeks): 0.34
Change from baseline in mPPT Climb Stairs (Flights Up and Down) scores, Δ to placebo (patients with HD [3]; [13]): −0.14
Δ to placebo: mPPT 50 Feet Walk scores, change from baseline (patients with HD [3]; [13]): 0
Δ to placebo: mPPT Chair Rise scores (patients with HD [3]; [13]): 0.01
